From patent publication US5679671A, “Amino acid derivative” (Eisai Co., Ltd., priority 1993, dated 1997)

Assays:
[1] = biological target: T1, ACE (Rattus norvegicus, UniProt P47820); assay: ACE inhibition activity (Experiment D-1); assay type: biochemical; conditions: rat lung membrane fraction, pH 8.3
T1 construct: membrane fraction prepared from rat lung; from tissue; host or cells: rat lung, membrane fraction (method of Wu-Wong et al.)
T1 sequence (P47820 36-1313): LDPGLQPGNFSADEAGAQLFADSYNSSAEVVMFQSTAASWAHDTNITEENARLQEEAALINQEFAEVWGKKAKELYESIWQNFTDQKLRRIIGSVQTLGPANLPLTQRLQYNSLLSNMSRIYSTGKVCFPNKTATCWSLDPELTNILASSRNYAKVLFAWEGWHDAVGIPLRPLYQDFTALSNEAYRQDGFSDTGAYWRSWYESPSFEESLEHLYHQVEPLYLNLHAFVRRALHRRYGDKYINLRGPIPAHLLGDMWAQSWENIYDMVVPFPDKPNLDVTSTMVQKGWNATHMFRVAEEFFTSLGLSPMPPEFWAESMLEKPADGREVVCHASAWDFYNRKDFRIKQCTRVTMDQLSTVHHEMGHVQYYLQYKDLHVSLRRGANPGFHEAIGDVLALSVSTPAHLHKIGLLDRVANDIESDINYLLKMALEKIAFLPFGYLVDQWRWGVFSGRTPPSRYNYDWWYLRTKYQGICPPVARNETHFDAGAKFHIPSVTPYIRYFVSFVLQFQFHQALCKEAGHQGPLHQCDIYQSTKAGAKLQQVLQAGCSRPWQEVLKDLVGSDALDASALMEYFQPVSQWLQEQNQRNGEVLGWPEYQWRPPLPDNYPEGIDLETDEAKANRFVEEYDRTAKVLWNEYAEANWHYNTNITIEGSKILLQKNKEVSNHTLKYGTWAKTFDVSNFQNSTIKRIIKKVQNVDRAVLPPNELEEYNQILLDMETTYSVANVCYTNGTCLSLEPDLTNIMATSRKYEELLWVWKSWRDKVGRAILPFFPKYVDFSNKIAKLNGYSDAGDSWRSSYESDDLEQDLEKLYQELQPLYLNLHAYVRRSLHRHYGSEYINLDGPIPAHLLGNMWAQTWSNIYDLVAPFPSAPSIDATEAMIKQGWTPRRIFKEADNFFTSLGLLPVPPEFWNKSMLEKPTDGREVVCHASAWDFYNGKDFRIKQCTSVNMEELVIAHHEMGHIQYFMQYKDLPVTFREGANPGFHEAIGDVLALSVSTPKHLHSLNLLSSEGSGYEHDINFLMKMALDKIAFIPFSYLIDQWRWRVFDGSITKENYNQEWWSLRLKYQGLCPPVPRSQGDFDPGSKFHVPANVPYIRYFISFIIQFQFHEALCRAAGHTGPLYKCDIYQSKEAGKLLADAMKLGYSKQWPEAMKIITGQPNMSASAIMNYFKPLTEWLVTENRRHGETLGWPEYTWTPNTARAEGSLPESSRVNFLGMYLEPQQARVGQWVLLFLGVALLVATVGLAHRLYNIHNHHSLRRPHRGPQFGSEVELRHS
Experimental: As a source of the enzyme ACE, a membrane fraction prepared from rat lung in accordance with the method of Wu-Wong et al. (Characterization of Endthelin Converting Enzyme in Rat Lung., Junshyum R. Wu-Wong, Gerald, P. Budzik, Edward M. Devine and Terry J. Opgenorth, Biochem. Biophys. Res. Commun., 1990, 171, 1291-1296.) was used. The ACE activity was determined with the use of a modification (modified to a borate buffer, pH 8.3) of the method of Cushman and Cheung (Spectrophotometric Assay and Properties of the Angiotensin-Converting Enzyme of Rabbit Lung., Cushman D. W. and Cheung H. S., 1971, 20, 1637-1648.). Now the procedure will be briefly described.
In the presence of ACE, the hippurate liberated from hippuryl-histidine-leucine (Hippuryl-His-Leu (Peptide Institute Inc., Japan)) was extracted with ethyl acetate and then the absorbance was measured at a wavelength of 228 nm.
(§1) To determine the NEP inhibition activity and the ACE inhibition activity, the inhibitor was added to the assay systems of both enzyme activities as described above in such a manner as to give the final concentrations of 1, 3, 10, 30, 100, 300 and 1000 nM and inhibition curves were prepared. Then the concentration at which 50% inhibition was achieved was taken as IC50.

[2] = biological target: T2, NEP (Rattus norvegicus, UniProt P07861); assay: NEP inhibition activity (Experiment D-1); assay type: biochemical; design: membrane fraction prepared from rat renal cortex; from tissue; host or cells: rat renal cortex, membrane fraction (method of Booth and Kenny); conditions: rat renal cortex membrane fraction
T2 sequence (P07861 1-750): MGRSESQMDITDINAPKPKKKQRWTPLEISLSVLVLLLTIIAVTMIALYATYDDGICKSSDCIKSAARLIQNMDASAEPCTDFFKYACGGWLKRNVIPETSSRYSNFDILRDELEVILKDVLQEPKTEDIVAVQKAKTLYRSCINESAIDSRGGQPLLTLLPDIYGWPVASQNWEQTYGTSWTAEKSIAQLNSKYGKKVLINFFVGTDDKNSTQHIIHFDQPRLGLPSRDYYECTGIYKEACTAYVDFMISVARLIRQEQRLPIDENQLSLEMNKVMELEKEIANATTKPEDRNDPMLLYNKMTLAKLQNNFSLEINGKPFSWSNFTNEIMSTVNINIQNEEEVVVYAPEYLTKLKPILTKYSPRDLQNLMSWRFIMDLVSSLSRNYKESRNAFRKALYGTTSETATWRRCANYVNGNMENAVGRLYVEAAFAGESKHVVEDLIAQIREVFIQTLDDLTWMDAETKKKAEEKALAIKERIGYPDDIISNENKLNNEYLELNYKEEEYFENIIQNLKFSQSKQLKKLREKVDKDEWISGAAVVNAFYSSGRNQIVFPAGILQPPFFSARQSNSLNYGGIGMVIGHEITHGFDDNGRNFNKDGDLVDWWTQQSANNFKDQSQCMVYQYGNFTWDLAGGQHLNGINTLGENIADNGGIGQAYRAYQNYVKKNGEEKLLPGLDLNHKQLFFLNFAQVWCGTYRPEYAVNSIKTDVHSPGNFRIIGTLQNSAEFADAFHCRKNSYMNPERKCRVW
Experimental: As a source of the enzyme NEP, a membrane fraction prepared from rat renal cortex in accordance with the method of Booth and Kenny (A Rapid Method for the Purification of Microvilli from Rabbit Kidney., Andrew G. Booth and A. John Kenny, Biochem. j., 1974, 142, 575-581.) was employed. The NEP activity was determined in accordance with the method of Orlowsky and Wilk (Purification and Specificity of a Membrane-Bound Metalloendpeptidase from Bovine Pituitaries., Marian Orlowsky and Shrwin Wilk, Biochemistry, 1981, 20, 4942-4950.). Now the procedure will be briefly described.
As a substrate, benzoyl-glycine-arginine-arginine-2-naphthylamide benzoyl-Gly-Arg-Arg-2-naphthylamide (Nova Biochem, Switzerland)) was used. In the presence of an NEP enzyme preparation and excessive leucine aminopeptidase (sigma chemical Co., U.S.A.), the liberated naphthylamine was made to undergo color development with first garnet (Sigma chemical Co., U.S.A.), followed by the measurement of the absorbance at a wavelength of 540 nm.
as §1

[3] = test system: SHR; assay: Hypotensive effect on SHR, i.v. (Experiment D-2); assay type: in vivo, Spontaneously hypertensive rats
Experimental: (§2) Spontaneously hypertensive rats (SHR) aged 15 to 20 weeks were anesthetized by intraperitoneally administering thiopental sodium (50 mg/kg). The depth of anesthesia was maintained by optionally effecting supplemental anesthesia (5 mg/kg, i.v.). Catheters were inserted into the left common carotid artery and the vein respectively for the measurement of blood pressure and for the administration of a medicament. The cardiac rate was counted by using blood pressure as a trigger.
When the blood pressure became stable after the completion of the operation, the comparative compound or the compound of Example 9 was intravenously administered in doses of 0.1, 0.3 and 1.0 mg/kg and changes in blood pressure and cardiac rate were measured. Following the administration, the measurement was effected for 10 minutes in the cases of 0.1 and 0.3 mg/kg or for 30 minutes in the case of 1.0 mg/kg.

[4] = test system: SHR; assay: Hypotensive effect on SHR, i.v. (Experiment C-5); assay type: in vivo, rat (SHR)
Experimental: as §2, with “SHRs” for “Spontaneously hypertensive rats (SHR)”
When the blood pressure became stable after the completion of the operation, the comparative compound was intravenously administered in 0.1, 0.3 and 1.0 mg/kg and changes in blood pressure and cardiac rate were measured. Following the administration, the measurement was effected for 10 minutes in the cases of 0.1 and 0.3 mg/kg or for 30 minutes in the case of 1.0 mg/kg. The invention compound was intravenously administered in 0.03, 0.1 and 0.3 mg/kg and the measurement was effected for 10 minutes after the administration in the cases of 0.03 and 0.1 mg/kg or for 30 minutes after the administration in the case of 0.3 mg/kg.

[5] = test system: SHR; assay: Hypotensive effect on SHR through intravenous administration (separate experiment); assay type: in vivo; conditions: Rattus norvegicus, read-out: dose to decrease the blood pressure by 10%
Excerpt: In addition to the above-mentioned Pharmacological Experiment Examples, an experiment was separately effected with the use of SHR for examining hypotensive effects through intravenous administration. As the result, in the comparison of the conventionally known double inhibitors (1) [S-(R*,R*)]-2,3,4,5-tetrahydro-3-[(2-mercapto-[…])amino]-2-oxo-1H-benzazepine-1-acetic acid and (2) [S-(R*,R*)]-2,3,4,5-tetrahydro-3-[(2-mercapto-1-oxo-4-methylpentyl)amino]- 2-oxo-1H-benzazepine-1-acetic acid with the compounds of the present invention, Example C-8 and Example C-10, the inhibitors (1) and (2) should be administered each in a dose of 1.0 mg/kg to decrease the blood pressure by 10%, whereas the administration of 0.03 to 0.1 mg/kg of the compound of Example C-8 and the administration of 0.1 to 0.3 mg/kg of the compound of Example C-10 each achieved the same effect.

[6] = within 30 minutes after i.v. administration

Row | SMILES | IC50 [1] [µM] | IC50 [2] [µM] | cardiac rate ([3]; SHR, i.v.) | ED (10% decrease in blood pressure) [5] [mg/kg] | other results
1 | COc1ccc(CC(S)C(=O)N[C@H]2Cc3ccccc3[C@H]3SC[C@H](C(=O)O)N3C2=O)cc1 (stereo partly drawn) [Comp. cpd.*^1] | 0.011 | 0.014 |  |  | 
2 | CS(=O)(=O)Nc1ccc2c(c1)[C@H]1CCC[C@@H](C(=O)O)N1C(=O)[C@@H](NC(=O)[C@@H](S)Cc1ccccc1)C2 [Example D-5, [4S-[4α,7α(R*),12bβ]]-11-methylsulfonylamino7-[[(S)-2-mercapto-3-phenyl-1-oxopropyl)amino-6-oxo-1,2,3,4,6,7,8,12b-octahydropyrido-[2,1-a][2]benzazepine-4-carboxylic acid] | 0.017 | 0.033 |  |  | 
3 | COc1ccc(C[C@H](S)C(=O)N[C@H]2Cc3ccc(NS(C)(=O)=O)cc3[C@H]3CCC[C@@H](C(=O)O)N3C2=O)cc1 [Example D-6, [4S-[4α,7α(R*),12bβ]]-11-methylsulfonylamino-7-[[(S)-2-mercapto-3-(4-methoxyphenyl)-1-oxopropyl]amino-6-oxo-1,2,3,4,6,7,8,12b-octahydropyrido-[2,1-a][2]benzazepine-4-carboxylic acid] | 0.012 | 0.038 | tended to gradually decrease |  | decrease in blood pressure / hypotensive effect ([3]; 1.0 mg/kg i.v.): 25%; hypotensive effect on SHR relative to the comparative compound ([3]; SHR, i.v.): about three times that of the comparative compound
4 | O=C(N[C@H]1Cc2ccccc2[C@H]2CCC[C@@H](C(=O)O)N2C1=O)[C@@H](S)Cc1ccccc1 [comparative compound, reference compound] |  |  | tended to gradually decrease |  | cardiac rate ([4]; SHR, i.v.): tended to gradually decrease; return of blood pressure [4, 6]: did not return within 30 minutes; return of blood pressure [3, 6]: did not return within 30 minutes
5 | O=C(O)CN1C(=O)[C@@H](NC(=O)[C@@H](S)Cc2ccccc2)CCc2ccccc21 [inhibitor (1)] |  |  |  | 1 | 
6 | CC(C)C[C@H](S)C(=O)N[C@H]1CCc2ccccc2N(CC(=O)O)C1=O [inhibitor (2), [S-(R*,R*)]-2,3,4,5-tetrahydro-3-[(2-mercapto-1-oxo-4-methylpentyl)amino]-2-oxo-1H-benzazepine-1-acetic acid] |  |  |  | 1 | 
